Measurements reported in patent US20230095520A1, “PHARMACEUTICAL COMPOSITION FOR PREVENTING OR TREATING CANCER COMPRISING AZOLE DERIVATIVES OR PHARMACEUTICALLY ACCEPTABLE SALT THEREOF” (Yungjin Pharm. Co., Ltd., priority 2020, published 2023).

What was measured:
[1] = tested on: Hep3B; assay: Cancer cell proliferation GI50 (CCK-8); type: cell-based; conditions: liver cancer, 72 hours
Protocol: (§1) The proliferation effect of SY-1365, which is known to have a proliferation inhibitory effect on various carcinoma cells, and the compound of the present invention on various cancer cells was measured and compared as GI50 (half maximal growth inhibitory concentration, the concentration at which cell proliferation is reduced by half).
(§2) Various carcinoma cells were cultured at 37° C. in a humidified condition in the presence of 5% CO2. Each cell cultured in a 96-well cell culture plate was treated with the compound of the present invention and cultured for 72 hours.
(§3) In this example, in order to confirm the proliferation inhibitory effect on various cancer cells, Compound 121 was tested as follows.
(§4) The cells were cultured with a culture medium shown in Table 9 below at 37° C. in a humidified condition in the presence of 5% CO2. Each cell cultured in a 96-well cell culture plate was treated with the compound of the present invention and cultured for 72 hours.

[2] = tested on: Huh7; assay: Cancer cell proliferation GI50 (CCK-8); type: cell-based; conditions: Huh7 (Huh-7), liver cancer, 72 hours
Protocol: as §1, §2, §3, §4

[3] = tested on: MDA-MB-231; assay: Cancer cell proliferation GI50 (CCK-8); type: cell-based; conditions: MDA-MB-231, breast cancer, 72 hours
Protocol: as §1, §2, §3, §4

[4] = tested on: MDA-MB-468; assay: Cancer cell proliferation GI50 (CCK-8); type: cell-based; conditions: MDA-MB-468, breast cancer, 72 hours
Protocol: as §1, §2, §3, §4

[5] = tested on: HepG2; assay: Cancer cell proliferation GI50 (CCK-8); type: cell-based, human; conditions: HepG2, liver cancer, 72 hours
Protocol: as §1, §2, §3, §4

[6] = biological target: T1, Recombinant purified human CDK7 (Homo sapiens, UniProt P50613); assay: CDK7 activity inhibition, ADP-Glo kinase assay; type: biochemical; conditions: ATP 90 μM, MBP substrate, 2 hours 30° C.
T1 construct: purchased ThermoFisher PV3868
Protocol: Recombinant purified human CDK7 (ThermoFisher, PV3868) and ADP Glo Kinase Assay Kit (Promega, V9102) were used. CDK7 was diluted with 1× kinase reaction buffer (40 mM Tris-Cl, pH 7.5, 20 mM MgCl2, 0.1 mg/ml BSA and 50 μM DTT) and added to a 96 well plate (CDK7 final concentration per reaction: 50 ng). It was finally treated with the compound of the present invention to a 1% DMSO aqueous solution, and a substrate cocktail containing ATP (final concentration of 90 μM) and 0.2 μg/μl MBP (myelin basic protein) in a total of 25 μl reaction mass was added to a 96 well plate, thereby initiating the enzymatic reaction. After 2 hours of incubation (30° C.), an equal volume (25 μl per reaction) of ADP Glo was added and incubated at room temperature for 60 minutes (30° C.). Thereafter, kinase detection reagent (50 μl per reaction) was added and incubated at room temperature for 30 minutes (30° C.). The kinase activity was measured by the chemiluminescence method according to the ADP Glo Kinase Assay Kit instruction manual, and the CDK7 inhibitory activity of the compounds of the present invention was calculated.

[7] = tested on: MDA-MB-468 cells; assay: MDA-MB-468 cell proliferation inhibition (MTT); type: cell-based; conditions: for IC50: MDA-MB-468 proliferation; for Inhibition rate (%): MDA-MB-468, compound concentration 100 nM
Protocol: MDA-MB-468 cells are one of the triple-negative breast cancer (TNBC: negative for the expression of estrogen receptor, progesterone receptor and HER2) cells known as a malignant tumor that is difficult to diagnose at an early stage and has a high metastatic capacity, and these cells are used to test inhibition of proliferation and survival of breast cancer cells.
MDA-MB-468 cells cultured in a 96-well cell culture plate were treated with the compound of the present invention and cultured for 72 hours. Thereafter, the antiproliferative effect of the compound was assayed by the MTT method using a tetrazolium salt.

[8] = tested on: MV-4-11 cells; assay: MV-4-11 cell proliferation inhibition (CCK-8); type: cell-based; conditions: 72 hours; for Inhibition rate (%): MV-4-11, compound concentration 100 nM
Protocol: MV-4-11 cells are one of the acute myeloid leukemia cells with a Fms-like tyrosine kinase (FLT3) gene mutation, and these cells are used to test inhibition of proliferation and survival of leukemia cells.
MV-4-11 cells cultured in a 96-well cell culture plate were treated with the compound of the present invention and cultured for 72 hours. Thereafter, the antiproliferative effect of the compound was assayed by the CCK-8 method using a tetrazolium salt.

[9] = tested on: HepG2 cells; assay: HepG2 cell proliferation inhibition (CCK-8); type: cell-based; conditions: Homo sapiens, HepG2, 72 h
Protocol: HepG2 cells are human hepatocellular carcinoma cells. In order to evaluate the efficacy of inhibiting the proliferation in HepG2 cells, HepG2 cells were treated with the compounds of the present invention, and the proliferation level was measured as follows.
as §4, with “of MEM (Welgene)+10% FBS (Gibco)+1% penicillin/streptomycin (Gibco)” for “shown in Table 9 below”, “HepG2 cells” for “Each cell”, “were” for “was”

T1 sequence (P50613 whole entry): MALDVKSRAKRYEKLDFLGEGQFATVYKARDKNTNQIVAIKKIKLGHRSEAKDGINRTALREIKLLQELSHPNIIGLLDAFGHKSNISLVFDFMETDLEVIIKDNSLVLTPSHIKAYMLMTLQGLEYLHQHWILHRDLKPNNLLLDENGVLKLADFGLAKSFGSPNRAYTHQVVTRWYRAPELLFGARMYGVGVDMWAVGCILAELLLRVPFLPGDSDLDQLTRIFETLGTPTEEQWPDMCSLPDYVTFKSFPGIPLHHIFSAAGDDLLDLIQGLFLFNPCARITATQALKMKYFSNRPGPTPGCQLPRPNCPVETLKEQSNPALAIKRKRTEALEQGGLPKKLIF
T1 sequence (P51946 whole entry partner): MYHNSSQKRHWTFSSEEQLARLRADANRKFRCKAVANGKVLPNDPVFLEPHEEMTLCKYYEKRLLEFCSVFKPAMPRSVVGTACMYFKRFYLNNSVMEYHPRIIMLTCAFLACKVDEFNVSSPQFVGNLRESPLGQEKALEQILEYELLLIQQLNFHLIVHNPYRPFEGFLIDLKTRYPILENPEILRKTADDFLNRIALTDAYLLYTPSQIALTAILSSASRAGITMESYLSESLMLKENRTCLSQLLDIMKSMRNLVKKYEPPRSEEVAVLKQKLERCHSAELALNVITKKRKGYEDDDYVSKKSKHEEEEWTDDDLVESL
T1 sequence (P51948 whole entry partner): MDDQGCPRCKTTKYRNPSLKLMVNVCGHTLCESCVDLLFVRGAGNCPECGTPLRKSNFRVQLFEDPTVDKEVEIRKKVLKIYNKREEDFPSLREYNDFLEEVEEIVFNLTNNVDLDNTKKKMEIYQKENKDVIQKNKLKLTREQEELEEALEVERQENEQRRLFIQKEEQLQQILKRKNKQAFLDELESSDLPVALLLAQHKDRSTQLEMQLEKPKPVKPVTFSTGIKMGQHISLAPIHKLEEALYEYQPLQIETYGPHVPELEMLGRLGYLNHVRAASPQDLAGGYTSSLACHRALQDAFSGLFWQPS

Row | SMILES | IC50 [6] | IC50 ([7]; 72 hours) | Inhibition rate (%) ([7]; 72 hours) | Inhibition rate (%) [8] | further results
1 | CN(C)C/C=C/C(=O)Nc1ccc(C(=O)N[C@@]2(C)CCC[C@@H](Nc3ncc(Cl)c(-c4c[nH]c5ccccc45)n3)C2)nc1 [SY-1365, reference compound] | – | – | – | – | GI50 [1]: 36 nM; GI50 [2]: 20 nM; GI50 [3]: 70 nM; GI50 [4]: 18 nM; GI50 [5]: 19 nM
2 | CCc1cnc(NC(=O)[C@@H](C)c2cccc(-c3cnc(NC(=O)/C=C/CN(C)C)c(F)c3)c2)s1 [Compound 130, (S,E)-4-(dimethylamino)-N-(5-(3-(1-((5-ethylthiazol-2-yl)amino)-1-oxopropan-2-yl)phenyl)-3-fluoropyridin-2-yl)but-2-enamide] | 4 nM | 7 nM | – | – | IC50 ([7]; Homo sapiens, MDA-MB-468, 72 h): ≤ 14 nM
3 | C[C@H](C(=O)Nc1ncc(C(F)(F)F)s1)c1cccc(-c2cnc(NC(=O)/C=C/CN3CCC(O)C3)cn2)c1 (stereo partly drawn) [Compound 119, (E)-4-(3-hydroxypyrrolidin-1-yl)-N-(5-(3-((S)-1-oxo-1-((5-(trifluoromethyl)thiazolyl)amino)propan-2-yl)phenyl)pyrazin-2-yl)but-2-enamide] | 9 nM | 44 nM | – | – | –
4 | C=CC(=O)Nc1cncc(-c2cccc([C@H](C)C(=O)Nc3ncc(C4CC4)s3)c2)n1 [Compound 16] | – | – | 53% | 90% | –
5 | C=CC(=O)Nc1ncc(-c2cccc([C@H](C)C(=O)Nc3ncc(C4CC4)s3)c2)cn1 [Compound 27] | – | – | 74% | 100% | –
6 | C=CC(=O)Nc1cnc(-c2cccc([C@H](C)C(=O)Nc3ncc(C4CC4)s3)c2)cn1 [Compound 22] | – | – | 72% | 100% | –
7 | C=CC(=O)Nc1cnc(-c2cncc(C(C)C(=O)Nc3ncc(C(F)(F)F)s3)c2)cn1 (centres unmarked) [Compound 45, N-(5-(5-(1-oxo-1-((5-(trifluoromethyl)thiazol-2-yl)amino)propan-2-yl)pyridin-3-yl)pyrazin-2-yl)acrylamide] | 22.7 nM | 9.5 nM | – | – | IC50 ([7]; Homo sapiens, MDA-MB-468, 72 h): ≤ 14 nM; inhibition at 0.1 µM ([8]; Homo sapiens, MV4-11, MV-4-11, compound concentration 100 nM, read-out: Inhibition rate (%)): 100%; IC50 ([8]; Homo sapiens, MV4-11, MV-4-11 proliferation): 8 nM; IC50 [9]: 8.3 nM
8 | C[C@H](C(=O)Nc1ncc(C(F)(F)F)s1)c1cccc(-c2cnc(NC(=O)/C=C/CN3CC[C@@H](F)C3)cn2)c1 [Compound 115, (E)-4-((R)-3-fluoropyrrolidin-1-yl)-N-(5-(3-((S)-1-oxo-1-((5-(trifluoromethyl)thiazol-2-yl)amino)propan-2-yl)phenyl)pyrazin-2-yl)but-2-enamide] | 17 nM | – | – | – | IC50 [9]: 12.6 nM
9 | C=CC(=O)Nc1ccc(-c2cccc([C@H](C)C(=O)Nc3ncc(C4CC4)s3)c2)nn1 [Compound 28] | – | – | 74% | 100% | –
